Measurements from US10988477B2 (Merck Patent GmbH, priority 2018, dated 2021).

Biological target: GCN2 kinase (Homo sapiens, UniProt Q9P2K8)
Experiment: GCN2 enzyme inhibition assay (Transcreener ADP2 fluorescence polarization)
Assay type: biochemical
Details: Enzyme activity for compounds of Formula IV; Ki(app), 280 μM ATP, 25° C.
Protocol: Compounds were screened for their ability to inhibit GCN2 kinase activity using a Transcreener® ADP^2 fluorescence polarization assay that detects ADP levels (BellBrook Labs, WI). Assays were carried out in a buffer consisting of 25 mM Tris-HCl (pH 7.5), 50 mM NaCl, 10 mM MgCl2 and 1 mM DTT. Final substrate concentrations were 280 μM ATP and 200 μM peptidic substrate ([…]-OH [(RS)7], Bachem, Switzerland). Assays were carried out at 25° C. in the presence of a (typical) final concentration of 4 nM GCN2 kinase. An assay buffer containing GCN2 kinase and (RS)7 was prepared. 4.7 μL of this stock solution was placed per well of a black, low volume, 384-well microtitre plate (e.g. catalogue number 3676, Corning Inc., NY). To this was added […] of DMSO containing serial dilutions of the test compound (typical final concentrations of test compound were 0 to 8 μM). The plate was incubated for 10 minutes at 25° C. prior to the addition of 4.7 μL of ATP stock buffer to initiate the enzyme reaction. The reaction was allowed to proceed for 1 hour at 25° C., prior to the addition of 10 μL detection buffer (consisting of appropriate concentrations of ADP^2 antibody and ADP Alexa633 tracer in 1× stop and detect buffer as supplied by BellBrook Labs). […] Percentage inhibition of enzyme activity was then calculated at each compound dose. IC50 and Ki(app) (using known assay and kinetic parameters) values were calculated from percentage inhibition data using a non-linear, tight-binding algorithm. All data analysis was undertaken using the Screener® software package (Genedata, Switzerland).

Chain of GCN2 kinase (Q9P2K8 whole entry): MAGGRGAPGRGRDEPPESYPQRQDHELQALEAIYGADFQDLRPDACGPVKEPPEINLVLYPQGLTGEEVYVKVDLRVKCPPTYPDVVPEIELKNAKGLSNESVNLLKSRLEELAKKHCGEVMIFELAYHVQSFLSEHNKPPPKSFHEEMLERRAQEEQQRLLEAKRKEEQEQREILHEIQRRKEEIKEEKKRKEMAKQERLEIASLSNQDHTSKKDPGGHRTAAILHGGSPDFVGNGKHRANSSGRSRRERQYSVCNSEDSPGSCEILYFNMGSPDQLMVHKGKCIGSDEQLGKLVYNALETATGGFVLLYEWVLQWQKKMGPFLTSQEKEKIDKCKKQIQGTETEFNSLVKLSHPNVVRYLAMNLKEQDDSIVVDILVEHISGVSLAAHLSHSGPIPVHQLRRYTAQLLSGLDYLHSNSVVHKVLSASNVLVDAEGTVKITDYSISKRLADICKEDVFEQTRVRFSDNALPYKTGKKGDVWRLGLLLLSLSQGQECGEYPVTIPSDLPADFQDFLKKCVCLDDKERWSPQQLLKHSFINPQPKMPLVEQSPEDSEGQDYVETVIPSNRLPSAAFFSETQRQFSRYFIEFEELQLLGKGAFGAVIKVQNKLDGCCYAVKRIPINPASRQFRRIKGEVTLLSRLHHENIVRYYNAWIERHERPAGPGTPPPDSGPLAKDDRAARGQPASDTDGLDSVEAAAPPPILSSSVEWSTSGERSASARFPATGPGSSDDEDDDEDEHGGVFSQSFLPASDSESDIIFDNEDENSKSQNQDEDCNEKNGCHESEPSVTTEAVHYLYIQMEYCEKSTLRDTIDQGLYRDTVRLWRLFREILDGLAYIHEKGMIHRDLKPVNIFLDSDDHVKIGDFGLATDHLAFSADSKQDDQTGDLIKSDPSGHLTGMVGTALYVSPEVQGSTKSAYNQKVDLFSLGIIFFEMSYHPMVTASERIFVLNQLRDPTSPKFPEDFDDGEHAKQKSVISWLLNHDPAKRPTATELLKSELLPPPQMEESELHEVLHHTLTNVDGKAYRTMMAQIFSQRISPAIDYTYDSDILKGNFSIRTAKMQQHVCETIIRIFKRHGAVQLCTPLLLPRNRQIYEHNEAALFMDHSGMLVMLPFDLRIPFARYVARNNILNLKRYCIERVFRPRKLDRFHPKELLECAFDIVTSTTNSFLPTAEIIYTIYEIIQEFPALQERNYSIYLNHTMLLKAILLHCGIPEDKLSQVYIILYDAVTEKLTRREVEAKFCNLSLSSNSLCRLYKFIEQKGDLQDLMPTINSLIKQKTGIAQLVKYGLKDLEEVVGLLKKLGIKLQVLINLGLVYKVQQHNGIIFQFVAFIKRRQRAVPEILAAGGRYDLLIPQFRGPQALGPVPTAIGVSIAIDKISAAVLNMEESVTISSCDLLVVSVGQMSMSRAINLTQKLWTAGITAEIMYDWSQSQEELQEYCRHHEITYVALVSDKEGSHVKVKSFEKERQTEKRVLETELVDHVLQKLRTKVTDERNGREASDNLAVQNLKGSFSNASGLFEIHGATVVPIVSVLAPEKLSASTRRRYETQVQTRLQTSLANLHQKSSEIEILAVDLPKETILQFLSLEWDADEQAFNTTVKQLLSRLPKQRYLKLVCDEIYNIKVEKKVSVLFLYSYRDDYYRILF

| Ki | SMILES |
| --- | --- |
| 100 to 1000 nM | CN1CC2(CCN(c3ccnc(-c4cnc5cnc(C(F)(F)F)cn45)n3)C2)OC1=O (centres unmarked) [IV-579, 3-Methyl-7-(2-(6-(trifluoromethyl)imidazo[1,2-a]pyrazin-3-yl)pyrimidin-4-yl)-1-oxa-3,7-diazaspiro[4.4]nonan-2-one] |
| 100 to 1000 nM | CC1CC(C)C(C)N(c2ccnc(-c3cnc4cnc(C(F)(F)F)cn34)n2)C1 (centres unmarked) [IV-643, 6-(Trifluoromethyl)-3-(4-(2,3,5-trimethylpiperidin-1-yl)pyrimidin-2-yl)imidazo[1,2-a]pyrazine] |
| 100 to 1000 nM | NC(=O)C1CN(c2ccnc(-c3cnc4cnc(C(F)(F)F)cn34)n2)CCO1 (centres unmarked) [IV-599, 4-(2-(6-(Trifluoromethyl)imidazo[1,2-a]pyrazin-3-yl)pyrimidin-4-yl)morpholine-2-carboxamide] |
| < 10 nM | CC1CN(c2ccnc(-c3cnc4cnc(C#N)cn34)n2)C(C)C(c2cn[nH]c2)N1 (single isomer, unassigned) [IV-314, 3-(4-(2,5-Dimethyl-3-(1H-pyrazol-4-yl)piperazin-1-yl)pyrimidin-2-yl)imidazo[1,2-a]pyrazine-6-carbonitrile] |
| 100 to 1000 nM | CC1NCCN(c2ccnc(-c3cnc4cnc(C(F)F)cn34)n2)C1c1cn[nH]c1 (centres unmarked) [IV-455, 6-(Difluoromethyl)-3-(4-(3-methyl-2-(1H-pyrazol-4-yl)piperazin-1-yl)pyrimidin-2-yl)imidazo[1,2-a]pyrazine] |
| 100 to 1000 nM | CS(=O)(=O)NCC(=O)Nc1cccc(-c2ccnc(-c3cnc4cnc(C(F)F)cn34)n2)c1 [IV-173, N-(3-(2-(6-(Difluoromethyl)imidazo[1,2-a]pyrazin-3-yl)pyrimidin-4-yl)phenyl)-2-(methylsulfonamido)acetamide] |
| < 10 nM | FC(F)(F)c1cn2c(-c3nccc(N4CCC[C@@H](c5c[nH]cn5)C4)n3)cnc2cn1 [IV-706] |
| 100 to 1000 nM | CS(=O)(=O)NC1CCCN(c2ccnc(-c3cnc4cnc(C(N)=O)cn34)n2)C1 (centres unmarked) [IV-250, 3-(4-(3-(Methylsulfonamido)piperidin-1-yl)pyrimidin-2-yl)imidazo[1,2-a]pyrazine-6-carboxamide] |
| 100 to 1000 nM | FC(F)(F)c1cn2c(-c3nccc(N4CC5CCOC5C4)n3)cnc2cn1 (centres unmarked) [IV-497, 5-(2-(6-(Trifluoromethyl)imidazo[1,2-a]pyrazin-3-yl)pyrimidin-4-yl)hexahydro-2H-furo[2,3-a]pyrrole] |
| 100 to 1000 nM | OC1CCN(C2CCN(c3ccnc(-c4cnc5cnc(C(F)(F)F)cn45)n3)C2)CC1 (centres unmarked) [IV-645, 1-(1-(2-(6-(Trifluoromethyl)imidazo[1,2-a]pyrazin-3-yl)pyrimidin-4-yl)pyrrolidin-3-yl)piperidin-4-ol] |
| < 10 nM | CC1CC(C(N)=O)C(C)N(c2ccnc(-c3cnc4cnc(C(F)(F)F)cn34)n2)C1 (centres unmarked) [IV-464, 2,5-Dimethyl-1-(2-(6-(trifluoromethyl)imidazo[1,2-a]pyrazin-3-yl)pyrimidin-4-yl)piperidine-3-carboxamide] |
| 100 to 1000 nM | CC1C(NS(C)(=O)=O)CCCN1c1ccnc(-c2cnc3cnc(C(F)F)cn23)n1 (centres unmarked) [IV-127, N-(1-(2-(6-(Difluoromethyl)imidazo[1,2-a]pyrazin-3-yl)pyrimidin-4-yl)-2-methylpiperidin-3-yl)methanesulfonamide] |
| 10 to 100 nM | NC(=O)c1cn2c(-c3nccc(N4CCC(CO)CC4)n3)cnc2cn1 [IV-243, 3-(4-(4-(Hydroxymethyl)piperidin-1-yl)pyrimidin-2-yl)imidazo[1,2-a]pyrazine-6-carboxamide] |
| 100 to 1000 nM | FC(F)c1cn2c(-c3nccc(C4=CCCC4)n3)cnc2cn1 [IV-163, 3-(4-(Cyclopent-1-en-1-yl)pyrimidin-2-yl)-6-(difluoromethyl)imidazo[1,2-a]pyrazine] |
| 100 to 1000 nM | CC(=O)Nc1ccc(-c2cn3c(-c4nccc(N5CCN(C(C)=O)CC5)n4)cnc3cn2)cc1 [IV-298, N-(4-(3-(4-(4-Acetylpiperazin-1-yl)pyrimidin-2-yl)imidazo[1,2-a]pyrazin-6-yl)phenyl)acetamide] |
| < 10 nM | Cc1n[nH]c(C)c1C1CCCN(c2ccnc(-c3cnc4cnc(C(F)(F)F)cn34)n2)C1 (single isomer, unassigned) [IV-476, 3-(4-(3-(3,5-Dimethyl-1H-pyrazol-4-yl)piperidin-1-yl)pyrimidin-2-yl)-6-(trifluoromethyl)imidazo[1,2-a]pyrazine] |
| 10 to 100 nM | CC1CN(c2ccnc(-c3cnc4cnc(Br)cn34)n2)C(C)C(c2cn[nH]c2)N1 (single isomer, unassigned) [IV-287, 6-Bromo-3-(4-(2,5-dimethyl-3-(1H-pyrazol-4-yl)piperazin-1-yl)pyrimidin-2-yl)imidazo[1,2-a]pyrazine] |
| < 10 nM | CC1CCCN(c2ccnc(-c3cnc4cnc(C(N)=O)cn34)n2)C1C (centres unmarked) [IV-264, 3-(4-(2,3-Dimethylpiperidin-1-yl)pyrimidin-2-yl)imidazo[1,2-a]pyrazine-6-carboxamide] |
| 100 to 1000 nM | OCCC1CCCCN1c1ccnc(-c2cnc3cnc(C(F)(F)F)cn23)n1 (centres unmarked) [IV-438, 2-(1-(2-(6-(Trifluoromethyl)imidazo[1,2-a]pyrazin-3-yl)pyrimidin-4-yl)piperidin-2-yl)ethan-1-ol] |
| 100 to 1000 nM | CC(=O)N1CCN(c2cccc(-c3cnc4cnc(C(F)(F)F)cn34)n2)CC1 [IV-259, 1-(4-(6-(6-(Trifluoromethyl)imidazo[1,2-a]pyrazin-3-yl)pyridin-2-yl)piperazin-1-yl)ethan-1-one] |
| < 10 nM | Fc1n[nH]cc1C1CCCN(c2ccnc(-c3cnc4cnc(C(F)(F)F)cn34)n2)C1 (centres unmarked) [IV-473, 3-(4-(3-(5-Fluoro-1H-pyrazol-4-yl)piperidin-1-yl)pyrimidin-2-yl)-6-(trifluoromethyl)imidazo[1,2-a]pyrazine] |
| 10 to 100 nM | NC(=O)c1cn2c(-c3nccc(N4CCC5(CC4)OCCO5)n3)cnc2cn1 [IV-266, 3-(4-(1,4-Dioxa-8-azaspiro[4.5]decan-8-yl)pyrimidin-2-yl)imidazo[1,2-a]pyrazine-6-carboxamide] |

Same assay, conditions: compounds of Formula II; 280 μM ATP, 4 nM GCN2 kinase

| Ki | SMILES |
| --- | --- |
| 10 to 1000 nM | CS(C)(=O)=Nc1cccc(-c2cc(-c3cnc4ccc(C(F)F)nn34)ncn2)c1 [II-599, [3-[6-[6-(Difluoromethyl)imidazo[1,2-b]pyridazin-3-yl]pyrimidin-4-yl]phenyl]imino-dimethyl-oxo-λ^6-sulfane] |
| 10 to 1000 nM | CC(C)C(C)(O)C1CCCN(c2cc(-c3cnc4ccc(C(F)F)nn34)ncn2)C1 (centres unmarked) [II-621, 2-(1-(6-(6-(Difluoromethyl)imidazo[1,2-b]pyridazin-3-yl)pyrimidin-4-yl)piperidin-3-yl)-3-methylbutan-2-ol] |
| 10 to 1000 nM | O=S1(=O)CCCC1C1CCCN(c2cc(-c3cnc4ccc(C(F)F)nn34)ncn2)C1 (centres unmarked) [II-563, 2-(1-(6-(6-(Difluoromethyl)imidazo[1,2-b]pyridazin-3-yl)pyrimidin-4-yl)piperidin-3-yl)tetrahydrothiophene 1,1-dioxide] |
| < 10 nM | CCS(C)(=O)=NC1CC(C)CN(c2cc(-c3cnc4ccc(C(F)F)nn34)ncn2)C1 (single isomer, unassigned) [II-642, ((1-(6-(6-(Difluoromethyl)imidazo[1,2-b]pyridazin-3-yl)pyrimidin-4-yl)-5-methylpiperidin-3-yl)imino)(ethyl)(methyl)-λ^6-sulfanone] |
| 10 to 1000 nM | CCS(=O)(CC)=NC1CC(C)CN(c2cc(-c3cnc4ccc(C(F)F)nn34)ncn2)C1 (centres unmarked) [II-627, ((1-(6-(6-(Difluoromethyl)imidazo[1,2-b]pyridazin-3-yl)pyrimidin-4-yl)-5-methylpiperidin-3-yl)imino)diethyl-λ^6-sulfanone] |
| 10 to 1000 nM | CC(C)(O)C1CCCN(c2cc(-c3cnc4ccc(C(F)F)nn34)ncn2)C1 (single isomer, unassigned) [II-613, 2-(1-(6-(6-(Difluoromethyl)imidazo[1,2-b]pyridazin-3-yl)pyrimidin-4-yl)piperidin-3-yl)propan-2-ol] |
| < 10 nM | CC1CC(CS(C)(=O)=O)C(C)N(c2cc(-c3cnc4ccc(C(F)F)nn34)ncn2)C1 (centres unmarked) [II-587, 6-(Difluoromethyl)-3-[6-[2,5-dimethyl-3-(methylsulfonylmethyl)-1-piperidyl]pyrimidin-4-yl]imidazo[1,2-b]pyridazine] |
| 10 to 1000 nM | CC1C(N=S(C)(C)=O)CCCN1c1cc(-c2cnc3ccc(C(F)F)nn23)ncn1 (single isomer, unassigned) [II-581, ((1-(6-(6-(Difluoromethyl)imidazo[1,2-b]pyridazin-3-yl)pyrimidin-4-yl)-2-methylpiperidin-3-yl)imino)dimethyl-λ^6-sulfanone] |

Same assay, conditions: compounds of Formula III; 280 μM ATP, 4 nM GCN2 kinase

| Ki | SMILES |
| --- | --- |
| > 1000 nM | c1ccc(-c2cc(-c3cnn4cccnc34)ccn2)cc1 [III-15, 3-(2-phenylpyridin-4-yl)pyrazolo[1,5-a]pyrimidine] |

Same assay, conditions: compounds of Formula IV; 280 μM ATP, 4 nM GCN2 kinase

| IC50 | SMILES |
| --- | --- |
| 10 to 1000 nM | Cc1n[nH]cc1[C@@H]1C[C@@H](C)CN(c2nccc(-c3cnc4cnc(C(F)(F)F)cn34)n2)C1 [IV-756, -(2-((3R,5S)-3-methyl-5-(3-methyl-1H-pyrazol-4-yl)piperidin-1-yl)pyrimidin-4-yl)-6-(trifluoromethyl)imidazo[1,2-a]pyrazine] |
